Values quoted from earlier work, collected in US20120040944A1 (APEX LABORATORIES PRIVATE LIMITED, priority 2009, published 2012).

How the values were obtained:
[1] = not given; remark: listed apart in the source
CYP3A4 isozyme = biological target: T1, CYP3A4 isozyme (Homo sapiens, UniProt P08684); conditions: liver
T1 construct: host or cells: liver
T1 sequence (P08684 whole entry): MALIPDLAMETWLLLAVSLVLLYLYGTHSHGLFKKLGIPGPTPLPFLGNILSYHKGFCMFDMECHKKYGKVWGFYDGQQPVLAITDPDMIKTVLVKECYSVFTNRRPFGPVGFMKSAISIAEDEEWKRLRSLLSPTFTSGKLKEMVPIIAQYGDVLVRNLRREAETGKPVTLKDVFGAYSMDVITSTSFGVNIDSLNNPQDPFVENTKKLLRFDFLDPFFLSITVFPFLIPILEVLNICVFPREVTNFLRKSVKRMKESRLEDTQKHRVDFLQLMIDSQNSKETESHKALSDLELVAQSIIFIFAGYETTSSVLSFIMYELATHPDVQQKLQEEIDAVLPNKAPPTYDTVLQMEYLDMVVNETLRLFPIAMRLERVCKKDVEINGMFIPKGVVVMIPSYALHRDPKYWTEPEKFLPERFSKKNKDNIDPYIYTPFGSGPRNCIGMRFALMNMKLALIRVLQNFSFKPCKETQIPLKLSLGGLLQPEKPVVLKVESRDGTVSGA

- solubility in ethyl alcohol (ethyl alcohol): moderately soluble
- solubility in octanol (octanol): slightly soluble
- solubility in water (water): practically insoluble
- Terminal t½ ([1]; in vivo): about 5 h
- bioavailability ([1]; inhaled dose compared with IV administration): less than 1%
- Excretion in the feces ([1]; up to 7 days): 74%
- Excretion in the urine ([1]; up to 7 days): 8%
Structure (SMILES): C[C@@H]1C[C@H]2[C@@H]3CCC4=CC(=O)C=C[C@]4(C)[C@@]3(Cl)[C@@H](O)C[C@]2(C)[C@@]1(OC(=O)c1ccco1)C(=O)CCl [Mometasone Furoate, 9α,21-dichloro-11β,17-dihydroxy-16α-methylpregna-1,4-diene-3,20-dione 17-(2-furoate)]
- metabolism (CYP3A4 isozyme): primarily and extensively metabolized in the liver by the CYP3A4 isozyme
